Values after ≈ are worked out from the molar mass of the structure shown. Active and inactive are the calls of the source. The rule behind the calls is not given here.
Experiments:
[1] = system: Pseudomonas sp.; assay: Antibacterial activity against gentamicin-resistant Pseudomonas spp. clinical isolate assessed as susceptible isolates after 18 hrs by agar dilution method; assay type: functional
[2] = system: Morganella morganii; assay: Antibacterial activity against non-gentamicin-resistant Morganella morganii clinical isolate assessed as susceptible isolates after 18 hrs by agar dilution method; assay type: functional
[3] = system: Acinetobacter calcoaceticus; assay: Antibacterial activity against non-gentamicin-resistant Acinetobacter calcoaceticus clinical isolate after 18 hrs by agar dilution method; assay type: functional
[4] = system: Haemophilus influenzae; assay: Antibacterial activity against non-gentamicin-resistant Haemophilus influenzae clinical isolate after 18 hrs by agar dilution method; assay type: functional
[5] = system: Escherichia coli BL21(DE3); assay: Ratio of Vmax to Km for AAC(6')-APH(2'') in Escherichia coli BL21(DE3) assessed as production of free pyridine-4-thiolate relative to netilmicin
[6] = system: Citrobacter freundii; assay: Antibacterial activity against non-gentamicin-resistant Citrobacter freundii clinical isolate assessed as susceptible isolates after 18 hrs by agar dilution method; assay type: functional
[7] = system: Citrobacter freundii; assay: Antibacterial activity against gentamicin-resistant Citrobacter freundii clinical isolate assessed as susceptible isolates after 18 hrs by agar dilution method; assay type: functional
[8] = system: Serratia marcescens; assay: Antibacterial activity against gentamicin-resistant Serratia marcescens clinical isolate after 18 hrs by agar dilution method; assay type: functional
[9] = system: Pseudomonas sp.; assay: Antibacterial activity against non-gentamicin-resistant Pseudomonas spp. clinical isolate assessed as susceptible isolates after 18 hrs by agar dilution method; assay type: functional
[10] = system: Citrobacter koseri; assay: Antibacterial activity against non-gentamicin-resistant Citrobacter diversus clinical isolate after 18 hrs by agar dilution method; assay type: functional
[11] = system: Enterobacter cloacae; assay: Antibacterial activity against gentamicin-resistant Enterobacter cloacae clinical isolate assessed as susceptible isolates after 18 hrs by agar dilution method; assay type: functional
[12] = system: Staphylococcus epidermidis; assay: Antibacterial activity against gentamicin-resistant Staphylococcus epidermidis clinical isolate after 18 hrs by agar dilution method; assay type: functional
[13] = system: Citrobacter freundii; assay: Antibacterial activity against gentamicin-resistant Citrobacter freundii clinical isolate after 18 hrs by agar dilution method; assay type: functional
[14] = system: Escherichia coli BL21(DE3); assay: Acetylation activity of AAC(6')-APH(2'') in Escherichia coli BL21(DE3) assessed as production of free pyridine-4-thiolate relative to netilmicin
[15] = system: Serratia marcescens; assay: Antibacterial activity against non-gentamicin-resistant Serratia marcescens clinical isolate after 18 hrs by agar dilution method; assay type: functional
[16] = system: Escherichia coli; assay: Antibacterial activity against non-gentamicin-resistant Escherichia coli clinical isolate after 18 hrs by agar dilution method; assay type: functional
[17] = system: Escherichia coli; assay: Antibacterial activity against gentamicin-resistant Escherichia coli clinical isolate assessed as susceptible isolates after 18 hrs by agar dilution method; assay type: functional
[18] = system: Proteus mirabilis; assay: Antibacterial activity against gentamicin-resistant Proteus mirabilis clinical isolate after 18 hrs by agar dilution method; assay type: functional
[19] = system: Escherichia coli BL21(DE3); assay: Phosphorylation activity of AAC(6')-APH(2'') in Escherichia coli BL21(DE3) assessed as oxidation of NADH by pyruvate kinase
[20] = system: Klebsiella aerogenes; assay: Antibacterial activity against gentamicin-resistant Enterobacter aerogenes clinical isolate assessed as susceptible isolates after 18 hrs by agar dilution method; assay type: functional
[21] = system: Haemophilus parainfluenzae; assay: Antibacterial activity against non-gentamicin-resistant Haemophilus parainfluenzae clinical isolate assessed as susceptible isolates after 18 hrs by agar dilution method; assay type: functional, organism-based
[22] = system: Serratia marcescens; assay: Antibacterial activity against gentamicin-resistant Serratia marcescens clinical isolate assessed as susceptible isolates after 18 hrs by agar dilution method; assay type: functional
[23] = system: Acinetobacter calcoaceticus; assay: Antibacterial activity against gentamicin-resistant Acinetobacter calcoaceticus clinical isolate assessed as susceptible isolates after 18 hrs by agar dilution method; assay type: functional
[24] = system: Proteus mirabilis; assay: Antibacterial activity against gentamicin-resistant Proteus mirabilis clinical isolate assessed as susceptible isolates after 18 hrs by agar dilution method; assay type: functional

CN[C@@H]1[C@@H](O)[C@@H](O[C@@H]2[C@@H](O)[C@H](O[C@@H]3OC(C(C)N)=CC[C@@H]3N)[C@@H](N)C[C@H]2N)OC[C@]1(C)O (some centres undefined) [VERDAMICIN]
Activity [1]: 3.8% | Activity [2]: 100% | MIC50 [3]: 0.5 µg/mL (≈ 1.08 µM) | MIC90 [3]: 2 µg/mL (≈ 4.33 µM) | MIC50 [4]: 1 µg/mL (≈ 2.17 µM) | MIC90 [4]: 1 µg/mL (≈ 2.17 µM) | Vmax/Km [5]: 4.5% | Activity [6]: 72.2% | Activity [7]: 26.3% | MIC50 [8]: > 128 µg/mL | MIC90 [8]: > 128 µg/mL | Activity [9]: 100% | MIC [10]: 0.25 µg/mL (≈ 0.542 µM) | MIC50 [10]: 0.25 µg/mL (≈ 0.542 µM) | MIC90 [10]: 0.5 µg/mL (≈ 1.08 µM) | Activity [11]: 5.3% | MIC50 [12]: 8 µg/mL (≈ 17.3 µM) | MIC90 [12]: > 128 µg/mL | MIC50 [13]: 32 µg/mL (≈ 69.3 µM) | MIC90 [13]: > 128 µg/mL | Vmax [14]: 9.6% | MIC50 [15]: 0.25 µg/mL (≈ 0.542 µM) | MIC90 [15]: 0.5 µg/mL (≈ 1.08 µM) | MIC50 [16]: 0.5 µg/mL (≈ 1.08 µM) | MIC90 [16]: 0.5 µg/mL (≈ 1.08 µM) | Activity [17]: 3.5% | MIC50 [18]: > 128 µg/mL | MIC90 [18]: > 128 µg/mL | Km [19]: 41.4 µM | Activity [20]: 0% | Activity [21]: inactive | Activity [22]: 10% | Activity [23]: 16% | Activity [24]: 18.2%
